In patent publication US9688676B2, “Tyrosine kinase inhibitors” (PRINCIPIA BIOPHARMA INC., priority 2015, dated 2017):

Target: BTK (Homo sapiens (Human), UniProt Q06187)
Assay: BTK enzymatic activity assay (Caliper-based kinase assay)
Format: biochemical
Settings: human recombinant BTK 0.5 nM, ATP 16 μM, 3 h room temperature
Method: A Caliper-based kinase assay (Caliper Life Sciences, Hopkinton, Mass.) was used to measure inhibition of BTK kinase activity of a compound of the present disclosure. […] The reaction was then terminated with EDTA, final concentration 20 mM and the phosphorylated reaction product was quantified on a Caliper Desktop Profiler (Caliper LabChip 3000). […] This value is presented as the IC50.

Chain of BTK (Q06187 whole entry): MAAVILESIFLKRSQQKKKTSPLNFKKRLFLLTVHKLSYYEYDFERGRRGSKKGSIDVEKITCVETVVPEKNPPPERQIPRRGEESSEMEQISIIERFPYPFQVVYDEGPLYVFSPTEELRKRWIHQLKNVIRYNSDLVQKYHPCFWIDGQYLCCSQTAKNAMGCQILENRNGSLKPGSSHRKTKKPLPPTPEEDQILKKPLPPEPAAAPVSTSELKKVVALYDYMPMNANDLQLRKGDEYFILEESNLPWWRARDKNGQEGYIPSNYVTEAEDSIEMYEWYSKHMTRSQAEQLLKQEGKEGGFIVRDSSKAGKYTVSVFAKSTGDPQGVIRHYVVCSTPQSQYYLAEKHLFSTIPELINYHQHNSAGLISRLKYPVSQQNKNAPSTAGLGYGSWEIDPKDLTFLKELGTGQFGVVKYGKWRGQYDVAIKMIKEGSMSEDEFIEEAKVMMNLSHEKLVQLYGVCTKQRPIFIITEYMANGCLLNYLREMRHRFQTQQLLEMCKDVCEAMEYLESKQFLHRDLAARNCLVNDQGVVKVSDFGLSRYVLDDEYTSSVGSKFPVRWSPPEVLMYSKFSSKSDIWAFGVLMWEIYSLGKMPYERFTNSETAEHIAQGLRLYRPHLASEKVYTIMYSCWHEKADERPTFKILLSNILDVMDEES

With `CC(C)(C=C(C#N)C(=O)N1CCC[C@@H](n2c(=O)n(-c3ccc(Oc4ccccc4)cc3)c3c(N)nccc32)C1)N1[C@@H]2CC[C@H]1COC2` [Compound 45, 2-((R)-3-(4-amino-2-oxo-3-(4-phenoxyphenyl)-2,3-dihydro-1H-imidazo[4,5-c]pyridin-1-yl)piperidine-1-carbonyl)-4-((1R,5S)-3-oxa-8-azabicyclo[3.2.1]octan-8-yl)-4-methylpent-2-enenitrile] the IC50 was 25.1 nM.

Work on `CC(C)(C=C(C#N)C(=O)N1CCC[C@@H](n2c(=O)n(-c3ccc(Oc4c(F)cccc4F)cc3)c3c(N)nccc32)C1)N1CCN(C2COC2)CC1` [Compound 24, (R)-2-(3-(4-amino-3-(4-(2,6-difluorophenoxy)phenyl)-2-oxo-2,3-dihydro-1H-imidazo[4,5-c]pyridin-1-yl)piperidine-1-carbonyl)-4-methyl-4-(4-(oxetan-3-yl)piperazin-1-yl)pent-2-enenitrile] yielded an IC50 of 4.7 nM.

Compound `CC(C)(C=C(C#N)C(=O)N1CCC[C@@H](n2c(=O)n(-c3ccc(Oc4ccccc4)c(F)c3)c3c(N)nccc32)C1)N1CCN(C2COC2)CC1` [Compound 26, (R)-2-(3-(4-amino-3-(3-fluoro-4-phenoxyphenyl)-2-oxo-2,3-dihydro-1H-imidazo[4,5-c]pyridin-1-yl)piperidine-1-carbonyl)-4-methyl-4-(4-(oxetan-3-yl)piperazin-1-yl)pent-2-enenitrile] has an IC50 of 3.5 nM.

For `N#CC(=CC1[C@H]2COC[C@@H]12)C(=O)N1CCC[C@@H](n2c(=O)n(-c3ccc(Oc4ccccc4)cc3)c3c(N)nccc32)C1` (stereo partly drawn) [Compound 53, 2-((R)-3-(4-amino-2-oxo-3-(4-phenoxyphenyl)-2,3-dihydro-1H-imidazo[4,5-c]pyridin-1-yl)piperidine-1-carbonyl)-3-((1R,5S)-3-oxabicyclo[3.1.0]hexan-6-yl)acrylonitrile], the IC50 was 4.2 nM.

In the case of `CC(C)(C=C(C#N)C(=O)N1CCC[C@@H](n2c(=O)n(-c3ccc(Oc4ccccc4)cc3)c3c(N)nccc32)C1)N1CCn2cnnc2C1` [Compound 29, (R)-2-(3-(4-amino-2-oxo-3-(4-phenoxyphenyl)-2,3-dihydro-1H-imidazo[4,5-c]pyridin-1-yl)piperidine-1-carbonyl)-4-(5,6-dihydro-[1,2,4]triazolo[4,3-a]pyrazin-7(8H)-yl)-4-methylpent-2-enenitrile], the IC50 is reported as 1.8 nM.

`CC1(C=C(C#N)C(=O)N2CCC[C@@H](n3c(=O)n(-c4ccc(Oc5ccccc5)cc4)c4c(N)nccc43)C2)CCOCC1` [Compound 37, (R)-2-(3-(4-amino-2-oxo-3-(4-phenoxyphenyl)-2,3-dihydro-1H-imidazo[4,5-c]pyridin-1-yl)piperidine-1-carbonyl)-3-(4-methyltetrahydro-2H-pyran-4-yl)acrylonitrile] showed an IC50 of 4.3 nM.

`CC(C)(C=C(C#N)C(=O)N1CCC[C@@H](n2c(=O)n(-c3ccc(Oc4ccccc4)cc3F)c3c(N)nccc32)C1)N1CCN(C2COC2)CC1` [Compound 27, (R)-2-(3-(4-amino-3-(2-fluoro-4-phenoxyphenyl)-2-oxo-2,3-dihydro-1H-imidazo[4,5-c]pyridin-1-yl)piperidine-1-carbonyl)-4-methyl-4-(4-(oxetan-3-yl)piperazin-1-yl)pent-2-enenitrile] was tested, and the IC50 was 4.9 nM.

`CC(C)(C=C(C#N)C(=O)N1CCC[C@@H](n2c(=O)n(-c3ccc(Oc4ccccc4)cc3)c3c(N)nccc32)C1)N1CCNC(=O)C1` [Compound 21, (R)-2-(3-(4-amino-2-oxo-3-(4-phenoxyphenyl)-2,3-dihydro-1H-imidazo[4,5-c]pyridin-1-yl)piperidine-1-carbonyl)-4-methyl-4-(3-oxopiperazin-1-yl)pent-2-enenitrile] was tested, and the IC50 was 4.6 nM.

Work on `CN1CCN(C(C)(C)C=C(C#N)C(=O)N2CCC[C@H]2Cn2c(=O)n(-c3ccc(Oc4ccccc4)cc3)c3c(N)nccc32)CC1=O` [Compound 35, (S)-2-(2-((4-amino-2-oxo-3-(4-phenoxyphenyl)-2,3-dihydro-1H-imidazo[4,5-c]pyridin-1-yl)methyl)pyrrolidine-1-carbonyl)-4-methyl-4-(4-methyl-3-oxopiperazin-1-yl)pent-2-enenitrile] yielded an IC50 of 26.2 nM.

For `CC(C)(N)C=C(C#N)C(=O)N1CCC[C@@H](n2c(=O)n(-c3ccc(Oc4ccccc4)cc3)c3c(N)nccc32)C1` [Compound 57, (R)-4-amino-2-(3-(4-amino-2-oxo-3-(4-phenoxyphenyl)-2,3-dihydro-1H-imidazo[4,5-c]pyridin-1-yl)piperidine-1-carbonyl)-4-methylpent-2-enenitrile], the IC50 was 61.4 nM.

With `CO[C@@H]1CCN(C(C)(C)C=C(C#N)C(=O)N2CCC[C@@H](n3c(=O)n(-c4ccc(Oc5ccccc5)cc4)c4c(N)nccc43)C2)C1` [Compound 60, 2-((R)-3-(4-amino-2-oxo-3-(4-phenoxyphenyl)-2,3-dihydro-1H-imidazo[4,5-c]pyridin-1-yl)piperidine-1-carbonyl)-4-((R)-3-methoxypyrrolidin-1-yl)-4-methylpent-2-enenitrile] the IC50 was 2.4 nM.

In the case of `CC#CC(=O)N1CCC[C@H]1Cn1c(=O)n(-c2ccc(Oc3ccccc3)cc2)c2c(N)nccc21` [Compound 23, (S)-4-amino-1-((1-(but-2-ynoyl)pyrrolidin-2-yl)methyl)-3-(4-phenoxyphenyl)-1H-imidazo[4,5-c]pyridin-2(3H)-one], the IC50 is reported as 25.9 nM.

Work on `CCC1(C=C(C#N)C(=O)N2CCC[C@@H](n3c(=O)n(-c4ccc(Oc5ccccc5)cc4)c4c(N)nccc43)C2)CCOCC1` [Compound 65, (R)-2-(3-(4-amino-2-oxo-3-(4-phenoxyphenyl)-2,3-dihydro-1H-imidazo[4,5-c]pyridin-1-yl)piperidine-1-carbonyl)-3-(4-ethyltetrahydro-2H-pyran-4-yl)acrylonitrile] yielded an IC50 of 2.4 nM.

Compound `N#CC(=CC1CC1)C(=O)N1CCC[C@@H](n2c(=O)n(-c3ccc(Oc4ccccc4)cc3)c3c(N)nccc32)C1` [Compound 41, (R)-2-(3-(4-amino-2-oxo-3-(4-phenoxyphenyl)-2,3-dihydro-1H-imidazo[4,5-c]pyridin-1-yl)piperidine-1-carbonyl)-3-cyclopropylacrylonitrile] has an IC50 of 3.1 nM.

For `CC(C)(C)OC(=O)N1CCN(C(C)(C)C=C(C#N)C(=O)N2CCC[C@@H](n3c(=O)n(-c4ccc(Oc5ccccc5)cc4)c4c(N)nccc43)C2)CC1` [Compound 43, (R)-tert-butyl 4-(5-(3-(4-amino-2-oxo-3-(4-phenoxyphenyl)-2,3-dihydro-1H-imidazo[4,5-c]pyridin-1-yl)piperidin-1-yl)-4-cyano-2-methyl-5-oxopent-3-en-2-yl)piperazine-1-carboxylate], the IC50 was 22.5 nM.

With `N#CC(=CC1CCSCC1)C(=O)N1CCC[C@@H](n2c(=O)n(-c3ccc(Oc4ccccc4)cc3)c3c(N)nccc32)C1` [Compound 20, (R)-2-(3-(4-amino-2-oxo-3-(4-phenoxyphenyl)-2,3-dihydro-1H-imidazo[4,5-c]pyridin-1-yl)piperidine-1-carbonyl)-3-(tetrahydro-2H-thiopyran-4-yl)acrylonitrile] the IC50 was 14.5 nM.

`CN1CCN(c2cccc(C(C)(C)C=C(C#N)C(=O)N3CCC[C@@H](n4c(=O)n(-c5ccc(Oc6ccccc6)cc5)c5c(N)nccc54)C3)n2)CC1` [Compound 54, (R)-2-(3-(4-amino-2-oxo-3-(4-phenoxyphenyl)-2,3-dihydro-1H-imidazo[4,5-c]pyridin-1-yl)piperidine-1-carbonyl)-4-methyl-4-(6-(4-methylpiperazin-1-yl)pyridin-2-yl)pent-2-enenitrile] was tested, and the IC50 was 17.8 nM.
